Results: patent publication EP1538164A1, “RGD targeting moiety its production and use” (Vectron Therapeutics AG, priority 2003, dated 2005)
Positions of bridges follow the written chain, without caps; N, C: chain ends. Residues, ends and D or L forms follow the SMILES beside them.

Experiments:
[1] = tested on: HUVEC; test: Competition of liposome binding by free competitors (HUVEC); design: species or system human
Procedure: Fig. 1: Binding of carboxyfluorescein-labelled RGD-10 to HUVECs. Thin line - cells without peptide, bold line - cells incubated with CF-labelled RGD-10. Fig. 2: Titration of inhibition of RGD-10 binding by peptides RGD-10 or RGD-4C analyzed by cell ELISA. Fig. 3: Structure of lipopeptides consisting of a peptide ligand with an acetylated Nterminus, the doo spacer linked to a dipalmitoyl-glycero-succinyl-lysine anchor. Fig. 4: A) Binding of RGD10 liposomes to HUVEC or B16.F10. Liposomes containing the RGD10-LP or RGD10-LP3 lipopeptide at a conc. of 0.1 mol% (thin line), 1 mol% (normal line), or 5 mol% (bold line) were analyzed for binding to HUVECs or B16.F10 (marked with 0). Binding of liposomes lacking lipopeptides is indicated as dotted line. B.) Liposomes containing the RGD10LP3 lipopeptide at a conc. of 1 mol% were analyzed for binding to MeWo or A431 cells. Dotted line = cells alone, normal line = liposomes without lipopeptide, bold line, RGD10-LP3 liposomes. Fig. 5: Competition experiments. […] Thin line = cells alone, normal line = plus peptide or 5 doo, bold line = liposomes without competitor. Fig. 6: Cell binding and internalization of RGD-10-LP3 liposomes. Fluorescence microscopy analysis of binding of RGD10-LP3 liposomes or liposomes lacking lipopeptide (untargeted liposomes) to HUVECs at 4°C or 37°C. […] Fig. 7: Pharmacokinetic analysis of liposomes containing 1 mol% LP1, 1 mol% LP3, or 0.1 mol% LP3. Fig. 8: Antitumor effects of LP3-liposomes (Dox-LP3 liposomes) loaded with doxorubicin in comparison to untargeted liposomes (Dox liposomes) or free doxorubicin analyzed in a C26 murine colon carcinoma tumor model.
(§1) Thus, binding to integrin-expressing cells is specifically mediated by the RGD peptide.

[2] = tested on: B16.F10; test: Competition of liposome binding by free competitors (B16.F10); design: species or system murine; conditions: RGD10 LP1-containing liposomes
Text: as §1

[3] = tested on: integrin-expressing cells; conditions: titration of competition of RGD-10 binding, cell ELISA, Fig. 2
[4] = tested on: HDMEC; test: Peptide binding to HDMEC; design: species or system human; conditions: compared with RGD-4C oxidized in two steps
Text: For further analysis we selected 2C-RGD peptide RGD-10 ([…]). The RGD-10 peptide was synthesized with the sequence […], thus lacking the C-terminal aspartate residue and resulting in a neutral net charge. […] For these experiments RGD-4C was oxidized in a two-step process to obtain disulfide bonds between C1-C4 and C2-C3 described to be essential for high affinity binding (Assa-Munt, et al. (2001) Biochemistry 40: 2373-2378). Compared to RGD-4C, RGD-10 contains only 2 cysteine residues, which facilitates synthesis of oxidized peptides using a one-step oxidation reaction. Furthermore, RGD-10 contains two aromatic residues, which allows spectrophotometrical detection at 280 nm. […] Thus, RGD-10 binds with the same affinity to integrin-expressing cells as RGD-4C, however, is much simpler to produce.

[5] = tested on: HUVEC; test: Direct binding of carboxyfluorescein-labelled RGD-10 to HUVEC; design: species or system human; conditions: synthetic carboxyfluorescein-labeled RGD-10 peptide, Fig. 1
Procedure: Fig. 1: Binding of carboxyfluorescein-labelled RGD-10 to HUVECs. Thin line - cells without peptide, bold line - cells incubated with CF-labelled RGD-10. Fig. 2: Titration of inhibition of RGD-10 binding by peptides RGD-10 or RGD-4C analyzed by cell ELISA. Fig. 3: Structure of lipopeptides consisting of a peptide ligand with an acetylated Nterminus, the doo spacer linked to a dipalmitoyl-glycero-succinyl-lysine anchor. Fig. 4: A) Binding of RGD10 liposomes to HUVEC or B16.F10. Liposomes containing the RGD10-LP or RGD10-LP3 lipopeptide at a conc. of 0.1 mol% (thin line), 1 mol% (normal line), or 5 mol% (bold line) were analyzed for binding to HUVECs or B16.F10 (marked with 0). Binding of liposomes lacking lipopeptides is indicated as dotted line. B.) Liposomes containing the RGD10LP3 lipopeptide at a conc. of 1 mol% were analyzed for binding to MeWo or A431 cells. Dotted line = cells alone, normal line = liposomes without lipopeptide, bold line, RGD10-LP3 liposomes. Fig. 5: Competition experiments. […] Fluorescence microscopy analysis of binding of RGD10-LP3 liposomes or liposomes lacking lipopeptide (untargeted liposomes) to HUVECs at 4°C or 37°C. […] Fig. 8: Antitumor effects of LP3-liposomes (Dox-LP3 liposomes) loaded with doxorubicin in comparison to untargeted liposomes (Dox liposomes) or free doxorubicin analyzed in a C26 murine colon carcinoma tumor model. […]

[6] = RGD10-LP3 liposomes (1 mol% lipopeptide), 100 µM competitor, Fig. 5
[7] = RGD10 LP1-containing liposomes (Example 3)

Row | SMILES | inhibition of binding of liposomes to HUVEC [1, 6] | inhibition of binding of liposomes to HUVEC [1, 7] | inhibition of binding of liposomes to B16.F10 [2] | IC50 [3] | binding strength to HDMEC [4] | binding to HUVEC [5]
1 | C[C@H](N)C(=O)N[C@H]1CSSC[C@@H](C(=O)NCC(=O)O)NC(=O)[C@H](Cc2ccccc2)NC(=O)[C@@H]2CSSC[C@H](NC(=O)[C@H](CC(=O)O)NC1=O)C(=O)N[C@@H](CCCNC(=N)N)C(=O)NCC(=O)N[C@@H](CC(=O)O)C(=O)N2 [RGD-4C, reference compound] (H-ACDCRGDCFCG-OH; disulfide 2-10, 4-8; N-terminus and C-terminus assumed) | completely inhibited | completely inhibited | completely inhibited | – | – | –
2 | C[C@H](NC(=O)CN)C(=O)N[C@@H](CCCNC(=N)N)C(=O)N[C@@H](Cc1ccc(O)cc1)C(=O)N[C@H]1CSSC[C@@H](C(=O)N[C@@H](Cc2ccccc2)C(=O)N[C@@H](CC(=O)O)C(=O)NCC(=O)O)NC(=O)[C@H](CC(=O)O)NC(=O)CNC(=O)[C@H](CCCNC(=N)N)NC1=O [RGD-10] (H-GARYCRGDCFDG-OH; disulfide 5-9; N-terminus and C-terminus assumed) | completely inhibited | completely inhibited | completely inhibited | ~200 nM | comparable strength as RGD-4C | Direct binding
